Assay results published in US20150343016A1, “CHEMICAL ENTITIES AND THERAPEUTIC USES THEREOF” (The Regents of the University of Colorado, a body corporate, priority 2010, published 2015).

Tests used:
H157 cells = experiment: Clonogenic assay, Bouvardin with IR, H157; format: cell-based, human
Method: To assess the effect of Bouvardin, another measure of cell survival, namely, clonogenic assays, was employed. […] For example, IC50 for IR at 0 and 10 nM of Bouvardin, extrapolated from the graph in FIG. 17A, are approximately 1.5 Gy and 1.0 Gy (dark and light dotted lines respectively).
In FIG. 17 (A) Clonogenic assays were used to confirm the effects of Bouvardin in combination with radiation in H157 cells. Cells were plated in 6 well plates at 1,000 cells per well. 24 hours later, various doses of (1 nM, 5 nM and 10 nM) of Bouvardin were added with media alone as a control. 24 hours after the addition of Bouvardin, the cells were irradiated at 0, 2, 4 and 6 Gy. Colonies were allowed to form for 2 weeks and then counted. The results are shown as a percentage of control (no drug, no IR). Error bar=±1SEM. (B) The effect of Bouvardin (Bvd) and radiation on H157 xenografts in athymic mice. Bouvardin treatment began when tumors had reached approximately 200 mm3. […]
The survival of cells treated with Bouvardin and IR was measured by performing standard clonogenic assays. […] The colonies were then stained with crystal violet (1% in methanol), rinsed 3× with water, and colonies with greater than 50 cells were counted using a dissection microscope. Fraction survival was calculated as a percentage of the control (no drug, no IR).

Drosophila = experiment: Sensitizing flies to ionizing radiation (FIG. 7); format: in vivo
Excerpt: Bouvardin derivatives are depicted in FIG. 4 as a generic Formula III, with the specific derivative used in this example having R1=COOCH3, R2=OCH3, R3=H, R4=Boc, R5=CH3.
Feeding stage 3rd instar larvae were irradiated as previously described (2). Briefly, 120 hr old larvae were rinsed to remove food and passed through sizing sieves to obtain animals of uniform size. Larvae were placed in a Petri dish and irradiated using a TORREX X-ray generator, set at 115 kV and 5 mA (producing 2.4 Rads/sec or 1.44 Gy/min) Irradiated larvae were then cultured on cornmeal-agar media (2) containing drug or DMSO carrier. In all experiments using human cells, cells in 96-well plates were irradiated with a RS2000 Biological Irradiator (Rad Source Technologies, Inc.) delivering 1 Gy/min.

COc1ccc(C[C@H]2C(=O)N[C@H](C)C(=O)N(C)[C@@H]3C(=O)N(C)[C@@H](Cc4ccc(O)c(c4)Oc4ccc(cc4)[C@H]3O)C(=O)N[C@@H](C)C(=O)N[C@H](C)C(=O)N2C)cc1 (stereo in doubt) [Bouvardin, bouvardin]
effect on radiation-induced reduction of clonogenicity (H157 cells): increased the effect of radiation in reducing the clonogenicity | observed effect of drug with radiation versus additive effect (Drosophila): exceeds additive effect of drug and radiation
